Measured values reported in ChEMBL document CHEMBL4265925, “Synthesis of 5H-pyrido[3,2-b]pyrrolizin-5-one tripentone analogs with antitumor activity” (Eur J Med Chem, 2018).
Activity calls are given as the source filed them. The calls are words filed in the database; no cut-off is given here.

Assays:
[1] = tested on: HCT-116; experiment: Antiproliferative activity against human HCT116 cells after 72 hrs by MTT assay; format: functional, cell-based; details: HCT-116, 72 h
[2] = tested on: MCF7; experiment: Antiproliferative activity against human MCF7 cells after 72 hrs by MTT assay; format: functional, cell-based; details: MCF7, 72 h
[3] = tested on: Caco-2; experiment: Cytotoxicity against human Caco2 cells assessed as reduction in cell viability at 1 to 10 uM after 72 hrs by MTT assay; format: cell-based; details: caco-2, 72 h
[4] = tested on: MCF7; experiment: Induction of apoptosis in human MCF7 cells assessed as late apoptotic cells at 2 uM measured after 48 hrs by Annexin-V-FITC/propidium iodide staining based flow cytometric method (reference value: 0%); format: functional
[5] = tested on: HCT-116; experiment: Induction of apoptosis in human HCT116 cells assessed as viable cells at 0.2 uM measured after 48 hrs by Annexin-V-FITC/propidium iodide staining based flow cytometric method (reference value: 99.6%); format: functional; details: HCT-116, 48 h, read-out: Activity
[6] = tested on: HCT-116; experiment: Cell cycle arrest human HCT116 cells assessed as increase in accumulation at subG0/G1 phase at 0.2 uM after 48 hrs by propidium iodide/RNase staining based FACS analysis; format: functional
[7] = species: Sus scrofa; experiment: Inhibition of porcine brain tubulin polymerization at 25 uM measured every 20 secs for 60 mins
[8] = tested on: MCF7; experiment: Cell cycle arrest in human MCF7 cells assessed as decrease in accumulation at G1 phase at 2 uM after 48 hrs by propidium iodide/RNase staining based FACS analysis; format: functional
[9] = tested on: HCT-116; experiment: Induction of apoptosis in human HCT116 cells assessed as late apoptotic cells at 0.2 uM measured after 48 hrs by Annexin-V-FITC/propidium iodide staining based flow cytometric method (reference value: 0%); format: functional
[10] = tested on: HCT-116; experiment: Induction of apoptosis in human HCT116 cells assessed as early apoptotic cells at 0.2 uM measured after 48 hrs by Annexin-V-FITC/propidium iodide staining based flow cytometric method (reference value: 0.4%); format: functional
[11] = tested on: HCT-116; experiment: Cell cycle arrest human HCT116 cells assessed as increase in accumulation at G2/M phase at 0.2 uM after 48 hrs by propidium iodide/RNase staining based FACS analysis; format: functional
[12] = tested on: HCT-116; experiment: Cell cycle arrest human HCT116 cells assessed as decrease in accumulation at S phase at 0.2 uM after 48 hrs by propidium iodide/RNase staining based FACS analysis; format: functional
[13] = tested on: MCF7; experiment: Induction of apoptosis in human MCF7 cells assessed as viable cells at 2 uM measured after 48 hrs by Annexin-V-FITC/propidium iodide staining based flow cytometric method (reference value: 99.9%); format: functional; details: MCF7, 48 h, read-out: Activity
[14] = tested on: MCF7; experiment: Cell cycle arrest in human MCF7 cells assessed as decrease in accumulation at S phase at 2 uM after 48 hrs by propidium iodide/RNase staining based FACS analysis; format: functional
[15] = tested on: MCF7; experiment: Cell cycle arrest in human MCF7 cells assessed as increase in accumulation at subG0/G1 phase at 2 uM after 48 hrs by propidium iodide/RNase staining based FACS analysis; format: functional
[16] = tested on: MCF7; experiment: Induction of apoptosis in human MCF7 cells assessed as early apoptotic cells at 2 uM measured after 48 hrs by Annexin-V-FITC/propidium iodide staining based flow cytometric method (reference value: 0.1%); format: functional
[17] = tested on: HCT-116; experiment: Cell cycle arrest human HCT116 cells assessed as decrease in accumulation at G1 phase at 0.2 uM after 48 hrs by propidium iodide/RNase staining based FACS analysis; format: functional
[18] = tested on: MCF7; experiment: Induction of apoptosis in human MCF7 cells assessed as necrotic cells at 2 uM measured after 48 hrs by Annexin-V-FITC/propidium iodide staining based flow cytometric method (reference value: 0%); format: functional
[19] = tested on: MCF7; experiment: Cell cycle arrest in human MCF7 cells assessed as increase in accumulation at G2/M phase at 2 uM after 48 hrs by propidium iodide/RNase staining based FACS analysis; format: functional
[20] = tested on: HCT-116; experiment: Induction of apoptosis in human HCT116 cells assessed as necrotic cells at 0.2 uM measured after 48 hrs by Annexin-V-FITC/propidium iodide staining based flow cytometric method (reference value: 0%); format: functional
[21] = tested on: HCT-116; experiment: Induction of apoptosis in human HCT116 cells assessed as viable cells at 0.1 uM measured after 48 hrs by Annexin-V-FITC/propidium iodide staining based flow cytometric method (reference value: 99.6%); format: functional; details: HCT-116, 48 h, read-out: Activity
[22] = tested on: MCF7; experiment: Cell cycle arrest in human MCF7 cells assessed as increase in accumulation at subG0/G1 phase at 3 uM after 48 hrs by propidium iodide/RNase staining based FACS analysis; format: functional
[23] = tested on: HCT-116; experiment: Induction of apoptosis in human HCT116 cells assessed as late apoptotic cells at 0.1 uM measured after 48 hrs by Annexin-V-FITC/propidium iodide staining based flow cytometric method (reference value: 0%); format: functional
[24] = tested on: HCT-116; experiment: Cell cycle arrest human HCT116 cells assessed as increase in accumulation at subG0/G1 phase at 0.1 uM after 48 hrs by propidium iodide/RNase staining based FACS analysis; format: functional
[25] = tested on: MCF7; experiment: Induction of apoptosis in human MCF7 cells assessed as viable cells at 3 uM measured after 48 hrs by Annexin-V-FITC/propidium iodide staining based flow cytometric method (reference value: 99.9%); format: functional; details: MCF7, 48 h, read-out: Activity
[26] = tested on: MCF7; experiment: Cell cycle arrest in human MCF7 cells assessed as increase in accumulation at G2/M phase at 3 uM after 48 hrs by propidium iodide/RNase staining based FACS analysis; format: functional
[27] = tested on: HCT-116; experiment: Induction of apoptosis in human HCT116 cells assessed as early apoptotic cells at 0.1 uM measured after 48 hrs by Annexin-V-FITC/propidium iodide staining based flow cytometric method (reference value: 0.4%); format: functional
[28] = tested on: HCT-116; experiment: Cell cycle arrest human HCT116 cells assessed as decrease in accumulation at S phase at 0.1 uM after 48 hrs by propidium iodide/RNase staining based FACS analysis; format: functional
[29] = tested on: MCF7; experiment: Cell cycle arrest in human MCF7 cells assessed as decrease in accumulation at G1 phase at 3 uM after 48 hrs by propidium iodide/RNase staining based FACS analysis; format: functional
[30] = tested on: HCT-116; experiment: Induction of apoptosis in human HCT116 cells assessed as necrotic cells at 0.1 uM measured after 48 hrs by Annexin-V-FITC/propidium iodide staining based flow cytometric method (reference value: 0%); format: functional
[31] = tested on: MCF7; experiment: Induction of apoptosis in human MCF7 cells assessed as early apoptotic cells at 3 uM measured after 48 hrs by Annexin-V-FITC/propidium iodide staining based flow cytometric method (reference value: 0.1%); format: functional
[32] = tested on: MCF7; experiment: Induction of apoptosis in human MCF7 cells assessed as necrotic cells at 3 uM measured after 48 hrs by Annexin-V-FITC/propidium iodide staining based flow cytometric method (reference value: 0%); format: functional
[33] = tested on: HCT-116; experiment: Cell cycle arrest human HCT116 cells assessed as increase in accumulation at G2/M phase at 0.1 uM after 48 hrs by propidium iodide/RNase staining based FACS analysis; format: functional
[34] = tested on: MCF7; experiment: Induction of apoptosis in human MCF7 cells assessed as late apoptotic cells at 3 uM measured after 48 hrs by Annexin-V-FITC/propidium iodide staining based flow cytometric method (reference value: 0%); format: functional
[35] = tested on: MCF7; experiment: Cell cycle arrest in human MCF7 cells assessed as decrease in accumulation at S phase at 3 uM after 48 hrs by propidium iodide/RNase staining based FACS analysis; format: functional
[36] = tested on: HCT-116; experiment: Cell cycle arrest human HCT116 cells assessed as decrease in accumulation at G1 phase at 0.1 uM after 48 hrs by propidium iodide/RNase staining based FACS analysis; format: functional
[37] = Inhibition of sheep brain tubulin polymerization incubated at 37 degreeC for 10 mins followed by incubated at 0 degreeC for 5 mins; set-up: species or system Ovis aries
[38] = tested on: HCT-116; experiment: Cell cycle arrest human HCT116 cells assessed as increase in accumulation at subG0/G1 phase at 0.3 uM after 48 hrs by propidium iodide/RNase staining based FACS analysis; format: functional
[39] = tested on: HCT-116; experiment: Cell cycle arrest human HCT116 cells assessed as decrease in accumulation at G1 phase at 0.3 uM after 48 hrs by propidium iodide/RNase staining based FACS analysis; format: functional
[40] = tested on: HCT-116; experiment: Cell cycle arrest human HCT116 cells assessed as increase in accumulation at G2/M phase at 0.3 uM after 48 hrs by propidium iodide/RNase staining based FACS analysis; format: functional
[41] = tested on: HCT-116; experiment: Induction of apoptosis in human HCT116 cells assessed as early apoptotic cells at 0.3 uM measured after 48 hrs by Annexin-V-FITC/propidium iodide staining based flow cytometric method (reference value: 0.4%); format: functional
[42] = tested on: HCT-116; experiment: Induction of apoptosis in human HCT116 cells assessed as viable cells at 0.3 uM measured after 48 hrs by Annexin-V-FITC/propidium iodide staining based flow cytometric method (reference value: 99.6%); format: functional; details: HCT-116, 48 h, read-out: Activity
[43] = tested on: HCT-116; experiment: Cell cycle arrest human HCT116 cells assessed as decrease in accumulation at S phase at 0.3 uM after 48 hrs by propidium iodide/RNase staining based FACS analysis; format: functional
[44] = tested on: HCT-116; experiment: Induction of apoptosis in human HCT116 cells assessed as necrotic cells at 0.3 uM measured after 48 hrs by Annexin-V-FITC/propidium iodide staining based flow cytometric method (reference value: 0%); format: functional
[45] = tested on: HCT-116; experiment: Induction of apoptosis in human HCT116 cells assessed as late apoptotic cells at 0.3 uM measured after 48 hrs by Annexin-V-FITC/propidium iodide staining based flow cytometric method (reference value: 0%); format: functional
[46] = species: Sus scrofa; experiment: Induction of porcine brain tubulin polymerization at 10 uM measured every 20 secs for 60 mins

Compound: O=C(N/N=C1/c2cccnc2-n2cccc21)c1cccs1
- IC50 [1]: 0.46 µM
- IC50 [2]: 3.15 µM
- Activity [3]: Non-Toxic

Compound: O=C(N/N=C1/c2cc(Br)cnc2-n2cccc21)c1ccc(O)cc1
- IC50 [1]: 1.66 µM
- IC50 [2]: 15.6 µM
- Activity [3]: Non-Toxic

Compound: O=C(N/N=C1/c2cc(Br)cnc2-n2cccc21)c1ccccc1
- IC50 [1]: 1.74 µM
- IC50 [2]: 14.9 µM
- Activity [3]: Non-Toxic

Compound: O=C(N/N=C1/c2cc(Br)cnc2-n2cccc21)c1ccco1
- Activity [4]: 0%
- viability at 0.2 µM [5]: 68.4%
- Activity [6]: Active
- inhibition [7]: inactive
- Activity [8]: Active
- Activity [9]: 0%
- Activity [10]: 31.5%
- Activity [11]: Active
- IC50 [1]: 0.17 µM
- Activity [12]: Active
- viability at 2 µM [13]: 78.2%
- Activity [14]: Active
- Activity [15]: Active
- IC50 [2]: 1.61 µM
- Activity [16]: 21.8%
- Activity [3]: Non-Toxic
- Activity [17]: Active
- Activity [18]: 0%
- Activity [19]: Active
- Activity [20]: 0%

Compound: O=C(N/N=C1/c2cc(Br)cnc2-n2cccc21)c1ccncc1
- viability at 0.1 µM [21]: 73.3%
- Activity [22]: Active
- Activity [23]: 0%
- inhibition [7]: inactive
- Activity [24]: Active
- viability at 3 µM [25]: 76%
- IC50 [1]: 0.11 µM
- Activity [26]: Active
- Activity [27]: 26.7%
- Activity [28]: Active
- Activity [29]: Active
- Activity [30]: 0%
- IC50 [2]: 3.4 µM
- Activity [31]: 24%
- Activity [3]: Non-Toxic
- Activity [32]: 0%
- Activity [33]: Active
- Activity [34]: 0%
- Activity [35]: Active
- Activity [36]: Active

Compound: O=C(N/N=C1/c2ncccc2-n2cccc21)c1ccccc1
- GI50 [1]: 4.25 µM
- GI50 [2]: 20.7 µM

Compound: COc1ccc(-c2csc3c2-n2cccc2C3=O)cc1O
- IC50 [37]: 2.9 µM

Compound: O=C(N/N=C1/c2cccnc2-n2cccc21)c1ccc(O)cc1
- IC50 [1]: 2.54 µM
- IC50 [2]: 16.1 µM
- Activity [3]: Non-Toxic

Compound: Nc1ccc(C(=O)N/N=C2/c3cc(Br)cnc3-n3cccc32)cc1
- Activity [4]: 0%
- Activity [38]: Active
- inhibition [7]: inactive
- Activity [8]: Active
- IC50 [1]: 0.23 µM
- viability at 2 µM [13]: 75.2%
- Activity [39]: Active
- Activity [14]: Active
- Activity [40]: Active
- Activity [15]: Active
- IC50 [2]: 1.8 µM
- Activity [41]: 32.9%
- Activity [16]: 24.8%
- Activity [3]: Non-Toxic
- viability at 0.3 µM [42]: 67%
- Activity [18]: 0%
- Activity [43]: Active
- Activity [19]: Active
- Activity [44]: 0%
- Activity [45]: 0%

Compound: CC(=O)O[C@H]1C(=O)[C@@]2(C)[C@H]([C@H](OC(=O)c3ccccc3)[C@]3(O)C[C@H](OC(=O)[C@H](O)[C@@H](NC(=O)c4ccccc4)c4ccccc4)C(C)=C1C3(C)C)[C@]1(OC(C)=O)CO[C@@H]1C[C@@H]2O
- Activity [46]: Active
